Measured values taken from publication PMC6199744, “Development of Chemical Proteomics for the Folateome and Analysis of the Kinetoplastid Folateome” (ACS Infectious Diseases, 2018).

Tested on: L. major lysate proteins
Assay: Multitargeted bead mixture chemoproteomics, single concentration competition, proteome-wide
Type: binding
Settings: for fold change / fold change relative to vehicle control: vehicle control = 1; for fold change relative to vehicle control: competition with free ligand

SMILES: CCCCCCOc1cccc(Cc2cnc(N)nc2N)c1 [compound 2]
- fold change vs vehicle control (protein LMJF.22.0730 HY[…], CONSERVED): 1.07
- fold change (protein LMJF.22.1460 I/6 AUTOANTIGEN-LIKE PROTEIN): 1.1
- fold change vs vehicle control (protein LMJF.22.1540 ALANYL-TRNA SYNTHETASE, PUTATIVE): 1.04
- fold change vs vehicle control (protein LMJF.23.0370 […] OXIDASE SUBUNIT 10, PUTATIVE): 1.09
- fold change (protein LMJF.23.0830 NA/H ANTIPORTER-LIKE PROTEIN): 0.96
- fold change (protein LMJF.23.1020 HY[…], UNKNOWN FUNCTION): 1.14
- fold change (protein LMJF.23.1220 T-COMPLEX PROTEIN 1, GAMMA SUBUNIT, PUTATIVE): 1.08
- fold change vs vehicle control (protein LMJF.24.0140 ANKYRIN/TPR REPEAT PROTEIN): 1.09
- fold change (protein LMJF.24.0280 DYNEIN INTERMEDIATE-CHAIN-LIKE PROTEIN): 0.94
- fold change (protein LMJF.24.0770 MALIC ENZYME, PUTATIVE): 1.06
- fold change relative to vehicle control (protein LMJF.24.1510 IGE-DEPENDENT HISTAMINE-RELEASING FACTOR, PUTATIVE): 1.53
- fold change vs vehicle control (protein LMJF.24.1630, SUCCINATE DEHYDROGENASE FLAVOPROTEIN, PUTATIVE): 1
- fold change vs vehicle control (protein LMJF.24.1840 LYSOPHOSPHOLIPASE, PUTATIVE): 1.01
- fold change relative to vehicle control (protein LMJF.24.2060 TRANSKETOLASE): 0.99
- fold change (protein LMJF.24.2250 FATTY-ACID DESATURASE, PUTATIVE): 1.01
- fold change vs vehicle control (protein LMJF.25.0120 ELECTRON TRANSFER FLAVOPROTEIN, PUTATIVE): 1.07
- fold change vs vehicle control (protein LMJF.25.0260 DYNEIN LIGHT CHAIN 1, CYTOPLASMIC, PUTATIVE): 1.15
- fold change relative to vehicle control (protein LMJF.25.0910 CYCLOPHILIN A): 1.57
- fold change vs vehicle control (protein LMJF.25.1180, ATPASE BETA SUBUNIT, PUTATIVE): 1.17
- fold change (protein LMJF.25.1610 HY[…], CONSERVED): 1.09
- fold change (protein LMJF.25.1620 HY[…], CONSERVED): 1.15
- fold change vs vehicle control (protein LMJF.26.1240 HEAT SHOCK PROTEIN 70-RELATED PROTEIN): 1.01
- fold change vs vehicle control (protein LMJF.26.1710 […] OXIDASE SUBUNIT V, PUTATIVE): 1.08
- fold change vs vehicle control (protein LMJF.26.1960 HY[…], CONSERVED): 1.05
- fold change vs vehicle control (protein LMJF.26.2000 HYPOTHETICAL PROTEIN, CONSERVED): 1.23
- fold change vs vehicle control (protein LMJF.27.0420 RIBOKINASE, PUTATIVE): 1.18
- fold change vs vehicle control (protein LMJF.27.1060 CYSTEINE DESULFURASE, PUTATIVE): 0.93
- fold change (protein LMJF.27.1310 ARGINYL-TRNA SYNTHETASE, PUTATIVE): 0.98
- fold change vs vehicle control (protein LMJF.27.2400 HEAT SHOCK PROTEIN DNAJ, PUTATIVE): 0.96
- fold change vs vehicle control (protein LMJF.28.0110 […] 3 SUBUNIT, PUTATIVE): 1.07
- fold change vs vehicle control (protein LMJF.28.0930 HY[…], CONSERVED): 1.12
- fold change vs vehicle control (protein LMJF.28.0950 HY[…], CONSERVED): 1.03
- fold change vs vehicle control (protein LMJF.28.1950 X-PRO, DIPEPTIDYL-PEPTIDASE,SERINE PEPTIDASE, CLAN SC, FAMILY S15, PUTATIVE): 1.13
- fold change relative to vehicle control (protein LMJF.28.2770 HEAT-SHOCK PROTEIN HSP70, PUTATIVE): 1.25
- fold change (protein LMJF.29.0060 TRYPTOPHANYL-TRNA SYNTHETASE, PUTATIVE): 1.06
- fold change (protein LMJF.29.0820 CYSTEINE PEPTIDASE C (CPC)): 0.82
- fold change relative to vehicle control (protein LMJF.29.0850 HIGH MOBILITY GROUP PROTEIN HOMOLOG TDP-1, PUTATIVE): 1.3
- fold change vs vehicle control (protein LMJF.29.1160 TRYPAREDOXIN): 1.04
- fold change (protein LMJF.29.1760 PARAFLAGELLAR ROD PROTEIN 1D, PUTATIVE): 0.97
- fold change vs vehicle control (protein LMJF.29.1780 DIPHTHAMIDE SYNTHESIS PROTEIN, PUTATIVE): 0.98
- fold change vs vehicle control (protein LMJF.29.2240 AMINOPEPTIDASE, PUTATIVE): 1.11
- fold change (protein LMJF.29.2310 ENOYL-COA HYDRATASE/ISOMERASE-LIKE PROTEIN): 1.08
- fold change (protein LMJF.29.2860 40S RIBOSOMAL PROTEIN S19-LIKE PROTEIN): 1.19
- fold change vs vehicle control (protein LMJF.30.0850 SURFACE PROTEIN AMASTIN, PUTATIVE): 1.16
- fold change (protein LMJF.30.1250 PYRIDOXAL KINASE, PUTATIVE): 1.01
- fold change vs vehicle control (protein LMJF.30.3190 3-HYDROXY-3-METHYLGLUTARYL-COA REDUCTASE): 1.04
- fold change vs vehicle control (protein LMJF.30.3520 S-ADENOSYL[…]): 1.05
- fold change vs vehicle control (protein LMJF.31.0440 CYTOSKELETON-[…] CAP5 5, PUTATIVE): 1
- fold change (protein LMJF.31.1130 N-ACYL-L-AMINO ACID AMIDOHYDROLASE, PUTATIVE): 0.8
- fold change vs vehicle control (protein LMJF.31.1640 THIOLASE PROTEIN-LIKE PROTEIN): 1.14
- fold change (protein LMJF.31.1800 AMINO ACID PERMEASE): 1.08
- fold change (protein LMJF.31.2250 3,2-TRANS-ENOYL-COA ISOMERASE, MIT[…], PUTATIVE): 0.92
- fold change vs vehicle control (protein LMJF.31.2790 ADP-RI[…], PUTATIVE): 1.1
- fold change (protein LMJF.31.3130 […]-COA CARBOXYLASE BIOTINYLATED […]-LIKE PROTEIN): 1.03
- fold change (protein LMJF.32.0010 HYPOTHETICAL PROTEIN, CONSERVED): 0.82
- fold change vs vehicle control (protein LMJF.32.0400 ATP-DEPENDENT RNA HELICASE, PUTATIVE): 1.03
- fold change vs vehicle control (protein LMJF.32.0520 PROFILIN, PUTATIVE): 1
- fold change (protein LMJF.32.1000 […]-COMPLEX PROTEIN, PUTATIVE): 1.02
- fold change vs vehicle control (protein LMJF.32.3010 HYPOTHETICAL PROTEIN, CONSERVED,LEUCINE-RICH REPEAT PROTEIN, PUTATIVE): 0.99
- fold change vs vehicle control (protein LMJF.32.3870 MYOSIN XXI): 0.91
- fold change vs vehicle control (protein LMJF.33.0890, HY[…], CONSERVED): 1.05
- fold change vs vehicle control (protein LMJF.33.1070 HY[…], UNKNOWN FUNCTION): 1.03
- fold change (protein LMJF.33.1330 CYSTEINE CONJUGATE BETA-LYASE, AMINOTRANSFERASE- LIKE PROTEIN): 1.33
- fold change (protein LMJF.33.1610 PEPTIDASE M20/M25/M40, PUTATIVE): 1
- fold change relative to vehicle control (protein LMJF.33.1630 CYCLOPHILIN 4, PUTATIVE): 1.35
- fold change vs vehicle control (protein LMJF.33.2300 UDP-GLC 4'-EPIMERASE, PUTATIVE): 1.15
- fold change vs vehicle control (protein LMJF.33.2390 HEAT SHOCK PROTEIN, PUTATIVE): 1.12
- fold change (protein LMJF.33.2410 HY[…], CONSERVED): 1.02
- fold change (protein LMJF.33.3150 40S RIBOSOMAL PROTEIN S13, PUTATIVE): 1.22
- fold change (protein LMJF.34.3500 RUVB-LIKE 1 DNA HELICASE, PUTATIVE): 1.2
- fold change (protein LMJF.34.3670 VACUOLAR ATP SYNTHASE CATALYTIC SUBUNIT A, PUTATIVE): 1.09
- fold change (protein LMJF.34.3740 SERINE PALMITOYLTRANSFERASE-LIKE PROTEIN): 0.95
- fold change (protein LMJF.34.4120 HYPOTHETICAL PROTEIN, CONSERVED): 0.91
- fold change vs vehicle control (protein LMJF.34.4370 20S […] 7 SUBUNIT, (PUTATIVE)): 1.06
- fold change (protein LMJF.35.0370 ATP-DEPENDENT DEAD-BOX RNA HELICASE, PUTATIVE): 1.03
- fold change vs vehicle control (protein LMJF.35.1380, MIT[…], BETA SUBUNIT, PUTATIVE): 1.09
- fold change vs vehicle control (protein LMJF.35.1410 THREONYL-TRNA SYNTHETASE, PUTATIVE): 0.97
- fold change vs vehicle control (protein LMJF.35.1720 CYCLOPHILIN 14, PUTATIVE): 1.13
- fold change (protein LMJF.35.2500 HY[…], CONSERVED): 1.03
- fold change (protein LMJF.35.2730 ACYL-COA DEHYDROGENASE, PUTATIVE): 1.02
- fold change relative to vehicle control (protein LMJF.35.3010 […],TRYPANOTHIONE-DEPENDENT […]): 1.16
- fold change vs vehicle control (protein LMJF.35.3100 ATP-DEPENDENT RNA HELICASE, PUTATIVE): 1.09
- fold change vs vehicle control (protein LMJF.35.3340 6-phosphogluconate dehydrogenase): 1.05
- fold change (protein LMJF.35.3700 GIM5A PROTEIN, PUTATIVE,[…] PROTEIN): 1.04
- fold change vs vehicle control (protein LMJF.35.3840 PROTEASOME BETA 2 SUBUNIT, PUTATIVE): 0.82
- fold change vs vehicle control (protein LMJF.35.3860 T-COMPLEX PROTEIN 1, ETA SUBUNIT, PUTATIVE): 1.06
- fold change (protein LMJF.35.4550 HYPOTHETICAL PROTEIN, CONSERVED): 0.88
- fold change (protein LMJF.35.4770 CYCLOPHILIN 40): 0.93
- fold change (protein LMJF.35.4850 PROTEASOME ALPHA 1 SUBUNIT, PUTATIVE): 1.1
- fold change (protein LMJF.35.4860 HYPOTHETICAL PROTEIN, CONSERVED): 0.97
- fold change relative to vehicle control (protein LMJF.35.5330 ISOPENTENYL-D[…]-ISOMERASE, PUTATIVE,ISOMERASE, PUTATIVE): 1.17
- fold change vs vehicle control (protein LMJF.36.0180 ELONGATION FACTOR 2): 1.2
- fold change vs vehicle control (protein LMJF.36.0620 HYPOTHETICAL PROTEIN, CONSERVED): 1.47
- fold change vs vehicle control (protein LMJF.36.0990 40S RIBOSOMAL PROTEIN S10, PUTATIVE): 1.17
- fold change vs vehicle control (protein LMJF.36.2020 CHAPERONIN HSP60, MIT[…]): 1.01
- fold change vs vehicle control (protein LMJF.36.3460 HYPOTHETICAL PROTEIN, CONSERVED): 0.88
- fold change (protein LMJF.36.3760 60S RIBOSOMAL PROTEIN L10A, PUTATIVE): 1.2
- fold change vs vehicle control (protein LMJF.36.3840 GLYCYL TRNA SYNTHETASE, PUTATIVE): 1.06
- fold change vs vehicle control (protein LMJF.36.4170 OXIDOREDUCTASE, PUTATIVE): 1.05
- fold change vs vehicle control (protein LMJF.36.5010 40S RIBOSOMAL PROTEIN SA, PUTATIVE): 1.14
- fold change (protein LMJF.36.5390 PHOSPHORIBOSYLPYROPHOSPHATE SYNTHETASE, PUTATIVE): 0.96
- fold change vs vehicle control (protein LMJF.36.5620 ISOLEUCYL-TRNA SYNTHETASE, PUTATIVE): 1.15
- fold change vs vehicle control (protein LMJF.36.6430 PROTEIN TRANSPORT PROTEIN SEC23-LIKE PROTEIN): 1.05
- fold change (protein LMJF.36.6760 HYPOTHETICAL PROTEIN, CONSERVED): 1.1
- fold change vs vehicle control (protein LMJF.36.6910 T-COMPLEX PROTEIN 1, THETA SUBUNIT, PUTATIVE): 1.05
- fold change vs vehicle control (protein LMJF.36.6940 disulfide isomerase PDI): 1.3
- fold change vs vehicle control (protein LMJF.[…] […] EXOPOLYPHOSPHATASE, PUTATIVE): 0.78
